The experiment deals with human MRGPRD (Homo sapiens, UniProt Q8TDS7). Kind of experiment: MRGPRD antagonist activity, IP-One HTRF assay in CHO cells stably expressing human MRGPRD (versus 100 μM β-Alanine agonist). In kind it is cell-based. In outline: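 IP-1 HTRF read-out, with IC50 from HTRF ratio curves and percent antagonism relative to maximal efficacy (mean, SEM). Antagonists and agonist were co-incubated 1 h at 37 °C plus 1 h at room temperature on overnight-plated MRGPRD-CHO cells in LiCl-containing Tris buffer, pH 8.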
Chain of human MRGPRD (Q8TDS7 whole entry): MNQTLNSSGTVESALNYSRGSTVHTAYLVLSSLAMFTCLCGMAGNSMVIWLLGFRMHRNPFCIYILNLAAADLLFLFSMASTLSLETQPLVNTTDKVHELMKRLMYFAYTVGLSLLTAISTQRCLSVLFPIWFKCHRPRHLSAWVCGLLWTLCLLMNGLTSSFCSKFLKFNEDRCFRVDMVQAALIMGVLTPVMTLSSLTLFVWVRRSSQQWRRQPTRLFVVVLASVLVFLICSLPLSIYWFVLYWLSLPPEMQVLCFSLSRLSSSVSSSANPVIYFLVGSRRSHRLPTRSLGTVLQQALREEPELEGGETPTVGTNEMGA
For orientation: TR-FRET usually uses a lanthanide donor and a delayed reading to cut background.

In US20260001871A1, “TRIAZOLE DERIVATIVES AS MODULATORS OF MAS-RELATED G-PROTEIN RECEPTOR D” (ESCIENT PHARMACEUTICALS, INC., priority 2022, published 2026) one finds IC50 data, which are given here for 68 compounds.

Some results are limits rather than exact numbers.

In general, IC50 refers to the point on the concentration scale where inhibition reaches its midpoint. Higher therefore signals weaker potency in that assay. For the compound `O=C(Nc1ccncc1)c1nnn(-c2ccc3ccccc3c2)c1C1CC1` [Compound 5-3], the IC50 lay within 500 to 1000 nM. As for `Cc1ccc(-n2nnc(C(=O)Nc3ccnc(C(F)(F)F)c3)c2C(C)C)cc1` [Compound 24-1, 5-isopropyl-1-(p-tolyl)-N-(2-(trifluoromethyl)pyridin-4-yl)-1H-1,2,3-triazole-4-carboxamide], the figure is 1000 to 3000 nM; as for `COCc1cccc(-c2ccc(-n3nnc(C(=O)Nc4ccncc4)c3C3CC3)cc2)c1` [Compound 7-167], 1000 to 3000 nM.

`O=C(Nc1ccncc1)c1nnn(-c2ccc(-c3cnn4c3CCC4)cc2)c1C1CC1` [Compound 7-25]: the 50% inhibitory concentration (IC50) lay in the range of 100 to 500 nM.

In turn, `Cc1nn(C2CCC2)c(C)c1-c1cccc(-n2nnc(C(=O)Nc3ccncc3)c2C2CC2)c1` [Compound 7-290] showed an IC50 of 1000 to 3000 nM. As for `O=C(Nc1ccncc1)c1nnn(-c2ccc(-c3ccns3)cc2)c1C1CC1` [Compound 7-125], the figure is 500 to 1000 nM. Regarding `Cc1cc(-c2ccc(-n3nnc(C(=O)Nc4ccncc4)c3C3CC3)cc2)n[nH]1` [Compound 7-206], the IC50 lay within 1000 to 3000 nM. As for `O=C(Nc1ccncc1)c1nnn(-c2csc3ccccc23)c1C1CC1` [Compound 4-10], the figure is 1000 to 3000 nM.

On to `COc1cncc(C2(NC(=O)c3nnn(-c4ccc(-c5ccc(C#N)cc5)cc4)c3C3CC3)CC2)c1` [Compound 18-6], for which the IC50 lay in the range of 1000 to 3000 nM. In the case of `Cc1nn(C)c(C)c1-c1ccc(-n2nnc(C(=O)NC3(c4cccnc4)CC3)c2C(C)C)cc1` [Compound 18-23], the IC50 fell in the range of 100 to 500 nM.

Compound `CCn1cc(CNC(=O)c2nnn(-c3ccc(-c4ccc(C#N)cc4)cc3)c2C2CC2)cn1` [Compound 17-4] yielded an IC50 of 100 to 500 nM. `CCc1ccc(C2(NC(=O)c3nnn(-c4ccc(-c5c(C)nn(C)c5C)cc4)c3C3CC3)CC2)cn1` [Compound 9-33] displayed an IC50 of 1000 to 3000 nM. The result for `Cc1ccc(-n2nnc(C(=O)Nc3ccncc3)c2C2CC2)cc1F` [Compound 2-13] reads above 3000 nM; that for `O=C(Nc1ccncc1)c1nnn(-c2cccc(-c3cnn(-c4ccccc4)c3)c2)c1C1CC1` [Compound 7-256], 500 to 1000 nM; that for `CCc1cccc(-c2cccc(-n3nnc(C(=O)Nc4ccncc4)c3C3CC3)c2)c1` [Compound 7-323], 1000 to 3000 nM. In turn, `O=C(Nc1ccncc1)c1nnn(-c2cccc(-c3ccc(-c4ccccc4)cc3)c2)c1C1CC1` [Compound 7-312] gave an IC50 of 1000 to 3000 nM. As for `O=C(Nc1ccncc1)c1nnn(-c2cccc(-c3cnn(C4CCC4)c3)c2)c1C1CC1` [Compound 7-243], the figure is 500 to 1000 nM; as for `O=C(Nc1ccncc1)c1nnn(C2CCCCC2)c1C1CC1` [Compound 6-1], 1000 to 3000 nM; as for `O=C(Nc1ccncc1)c1nnn(-c2ccc(-c3cnoc3)cc2)c1C1CC1` [Compound 7-105], 100 to 500 nM. The compound `CCn1cc(CNC(=O)c2nnn(-c3ccc(-c4ccc(F)cc4)cc3)c2C2CC2)cn1` [Compound 17-7] came in with an IC50 of 1000 to 3000 nM.

Take `CCCn1cc(-c2cccc(-n3nnc(C(=O)Nc4ccncc4)c3C3CC3)c2)cn1` [Compound 7-306]: the IC50 lay within 1000 to 3000 nM.

For the compound `Cc1nnc(-c2ccc(-n3nnc(C(=O)Nc4ccncc4)c3C3CC3)cc2)o1` [Compound 7-1], the IC50 was above 3000 nM.

Compound `Cc1cn2c(NC(=O)c3nnn(-c4ccc(-c5ccccc5)cc4)c3C3CC3)cccc2n1` [Compound 14-66] had an IC50 of 1000 to 3000 nM. `O=C(Nc1ccncc1)c1nnn(-c2ccc(-c3ccc(C4CCCC4)cc3)cc2)c1C1CC1` [Compound 7-202] had an IC50 of 1000 to 3000 nM. In turn, `Cc1ccncc1CNC(=O)c1nnn(-c2ccc(-c3c(C)nn(-c4ccccc4)c3C)cc2)c1C1CC1` [Compound 9-26] displayed an IC50 of 500 to 1000 nM. On to `CC(=O)c1cccc(-c2cccc(-n3nnc(C(=O)Nc4ccncc4)c3C3CC3)c2)c1` [Compound 7-237], for which the IC50 was 100 to 500 nM.

The compound `COc1ccc(-c2cccc(-n3nnc(C(=O)Nc4ccncc4)c3C3CC3)c2)cc1` [Compound 7-268] yielded an IC50 of 500 to 1000 nM. As to `Cc1ccccc1-c1cccc(-n2nnc(C(=O)Nc3ccncc3)c2C2CC2)c1` [Compound 7-322], the IC50 fell in the range of 1000 to 3000 nM. The result for `COc1ccc(C2(NC(=O)c3nnn(-c4ccc(-c5c(C)nn(C)c5C)cc4)c3C(C)C)CC2)cn1` [Compound 18-25] reads 500 to 1000 nM; that for `COc1ccc(C2(NC(=O)c3nnn(-c4ccc(-c5ccc(C#N)cc5)cc4)c3C(C)C)CC2)cn1` [Compound 18-24], 500 to 1000 nM; that for `Cc1c(-c2cccc(-n3nnc(C(=O)Nc4ccncc4)c3C3CC3)c2)cnn1C` [Compound 7-305], 1000 to 3000 nM. In turn, `Cc1nn(-c2ccccc2)c(C)c1-c1ccc(-n2nnc(C(=O)NCc3cccnc3)c2C2CC2)cc1` [Compound 9-14] returned an IC50 of 100 to 500 nM. The result for `Cc1n[nH]c(C)c1-c1ccc(-n2nnc(C(=O)Nc3ccncc3)c2C2CC2)cc1` [Compound 7-102] reads 100 to 500 nM; that for `Cc1nn(C)c(C)c1-c1ccc(-n2nnc(C(=O)NC(C)(C)c3cccnc3)c2C2CC2)cc1` [Compound 15-13], 500 to 1000 nM.

On to `O=C(Nc1ccncc1)c1nnn(-c2cccc(-c3cnn(C4CC4)c3)c2)c1C1CC1` [Compound 7-314], for which the IC50 fell in the range of 1000 to 3000 nM.

For `O=C(N[C@H]1CCC[C@@H](O)C1)c1nnn(-c2ccc(-c3ccccc3)cc2)c1C1CC1` [Compound 14-68], the IC50 is 1000 to 3000 nM. The result for `CC(=O)c1cccc(-n2nnc(C(=O)Nc3ccncc3)c2C2CC2)c1` [Compound 2-9] reads 1000 to 3000 nM; that for `N#CCc1ccc(-n2nnc(C(=O)Nc3ccncc3)c2C2CC2)cc1` [Compound 7-4], above 3000 nM; that for `CCn1cc(CNC(=O)c2nnn(-c3ccc(-c4ccc(C#N)cc4)cc3)c2C2CCC2)cn1` [Compound 17-26], 500 to 1000 nM.

`Cc1cc(NC(=O)c2nnn(-c3cccc(-c4ccn(-c5ccccc5)n4)c3)c2C2CC2)ccn1` [Compound 7-282] had an IC50 of 500 to 1000 nM.

Take `CC(C)C(NC(=O)c1nnn(-c2ccc(-c3ccccc3)cc2)c1C1CC1)c1cn[nH]c1` (centres unmarked) [Compound 14-81]: the IC50 is above 3000 nM.

On to `Cc1c(-c2ccc(-n3nnc(C(=O)Nc4ccncc4)c3C3CC3)cc2)c(CO)nn1C` [Compound 7-100], for which the IC50 fell in the range of 100 to 500 nM. The result for `Cc1nn(C)cc1-c1cccc(-n2nnc(C(=O)Nc3ccncc3)c2C2CC2)c1` [Compound 7-316] reads 1000 to 3000 nM.

For `O=C(Nc1ccncc1)c1nnn(-c2ccc3c(c2)CCC3)c1C1CC1` [Compound 5-1], the IC50 was above 3000 nM. The result for `CC(=O)c1ccc(-c2cccc(-n3nnc(C(=O)NCc4ccc(C)nc4)c3C3CC3)c2)c(F)c1` [Compound 7-297] reads 1000 to 3000 nM. As for `CC(NC(=O)c1nnn(-c2ccc(-c3ccc(C#N)cc3)cc2)c1C1CC1)c1cnn(C)c1` (centres unmarked) [Compound 15-8], the figure is 1000 to 3000 nM; as for `N#CCc1ccc(-c2cccc(-n3nnc(C(=O)Nc4ccncc4)c3C3CC3)c2)cc1` [Compound 7-273], 500 to 1000 nM; as for `C[C@H](NC(=O)c1nnn(-c2ccc(-c3ccccc3)cc2)c1C1CC1)c1ccc(Cl)cc1` [Compound 14-28], 1000 to 3000 nM. In turn, `CC(=O)c1ccc(-c2ccc(-n3nnc(C(=O)Nc4ccncc4)c3C3CC3)c(C)c2)cc1` [Compound 7-231] registered an IC50 of 100 to 500 nM. The result for `CCc1ccc(C2(NC(=O)c3nnn(-c4ccc(-c5c(C)nn6cccnc56)cc4)c3C3CC3)CC2)cn1` [Compound 10-8] reads 1000 to 3000 nM; that for `O=C(Nc1ccncc1)c1nnn(-c2ccc(-c3ccccc3)cc2)c1C1CC1` [Compound 2-3], 500 to 1000 nM; that for `CC(=O)c1ccc(-c2cccc(-n3nnc(C(=O)Nc4ccncc4)c3C3CC3)c2)cc1C` [Compound 7-249], 500 to 1000 nM. The result for `N#Cc1ccc(C2=CCC(n3nnc(C(=O)NC4(c5cccnc5)CC4)c3C3CC3)CC2)cc1` (centres unmarked) [Compound 12-9] reads 1000 to 3000 nM; that for `Cc1ccc(CNC(=O)c2nnn(-c3ccc(-c4cnn(Cc5ccccc5)c4)cc3)c2C2CC2)cn1` [Compound 7-108], 100 to 500 nM. Turning to `Cc1cc(NC(=O)c2nnn(-c3ccc(-c4ccc(C#N)cc4)c(F)c3)c2C2CC2)ccn1` [Compound 7-235], the IC50 was in the range of 100 to 500 nM. As for `Cc1ccc(-n2nnc(C(=O)Nc3ccncc3)c2C(C)C)cc1` [Compound 1-19], the figure is 500 to 1000 nM; as for `Cc1nn(C)c2ncnc(NC(=O)c3nnn(-c4ccc(-c5ccccc5)cc4)c3C3CC3)c12` [Compound 14-14], above 3000 nM. `CCc1ccc(-c2ccc(-n3nnc(C(=O)Nc4ccncc4)c3C3CC3)cc2)cc1` [Compound 7-199] yielded an IC50 of 1000 to 3000 nM. `CC(C)n1cc(-c2cc(-n3nnc(C(=O)Nc4ccncc4)c3C3CC3)ccc2F)cn1` [Compound 7-289] returned a 50% inhibitory concentration (IC50) of 1000 to 3000 nM. As for `O=C(O)c1cccc(-c2ccc(-n3nnc(C(=O)Nc4ccncc4)c3C3CC3)cc2)c1` [Compound 7-213], the figure is above 3000 nM; as for `O=C(NCc1cscn1)c1nnn(-c2ccc(-c3ccccc3)cc2)c1C1CC1` [Compound 14-11], above 3000 nM. Compound `Cc1ccc(CNC(=O)c2nnn(-c3ccc(-c4cnn5c4CCC5)cc3)c2C2CC2)cn1` [Compound 8-4] yielded an IC50 of 1000 to 3000 nM. The result for `Cn1ncc(-c2ccc(-n3nnc(C(=O)Nc4ccncc4)c3C3CC3)cc2)n1` [Compound 7-78] reads 100 to 500 nM. In the case of `Cc1nn(C)c(C)c1-c1ccc(-n2nnc(C(=O)Nc3cccc(C#N)c3)c2C(C)C)cc1` [Compound 17-18], the IC50 was 100 to 500 nM. As for `O=C(Nc1ccncc1)c1nnn(-c2ccc(-c3cnn(Cc4ccccc4)c3)cc2)c1C1CC1` [Compound 7-20], the figure is below 100 nM; as for `Cn1c(CNC(=O)c2nnn(-c3ccc(-c4ccc(CC#N)cc4)cc3)c2C2CC2)nc2ccccc21` [Compound 15-6], 1000 to 3000 nM; as for `Cc1cc(NC(=O)c2nnn(-c3ccc(-c4ccc(C#N)c(F)c4)cc3)c2C2CC2)ccn1` [Compound 15-2], 100 to 500 nM. On to `O=C(Nc1ccncc1)c1nnn(-c2ccc(-c3cnn(Cc4cccs4)c3)cc2)c1C1CC1` [Compound 7-29], for which the IC50 lay in the range of 100 to 500 nM.
